Read-outs that look alike come from different tables or passages of the source.
How the values were obtained:
DD2 [1] = system: DD2; set-up: method as in F.J. Gamo et al., Nature 2010; conditions: downloaded from ChEMBL, ref F.J. Gamo et al., Nature 2010; cited from earlier work
3D7 PFLDH [2] = system: 3D7 PFLDH; set-up: method as in F.J. Gamo et al., Nature 2010; concentration or dose not given beside the values; conditions: downloaded from ChEMBL, ref F.J. Gamo et al., Nature 2010; cited from earlier work
PKG = PKG (Plasmodium falciparum, UniProt Q8I719); assay: PKG IC50 (supplementary data file); assay type: biochemical
Description: Supplement pone.0149996.s003.xls, sheet "combined_1_sorted"

[3] = biological target: T1, Plasmodium falciparum calcium-dependent protein kinase 1 (CDPK1) (Plasmodium falciparum, UniProt P62344); assay: CDPK1 Kinase-Glo ATP-consumption screen and dose-response; assay type: biochemical; conditions: hits below 1 uM; read-out: CDPK1 IC50
T1 construct: 6-Histidine (N); made in house
Outline: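 Single-point testing used 1 μM final compound, then dose-response, against CDPK4 and CDPK1 with Syntide-2 (40 μM) as substrate. After 90 min, reactions were halted by 5 mM EGTA, and kinase activity was inferred from depleted ATP via Kinase-Glo luminescence.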

[4] = biological target: T2, Plasmodium falciparum calcium-dependent protein kinase 4 (CDPK4) (Plasmodium falciparum, UniProt Q8IBS5); assay: CDPK4 Kinase-Glo ATP-consumption screen and dose-response; assay type: biochemical; conditions: hits below 1 uM
T2 construct: 6-Histidine (N); made in house
T2 sequence (Q8IBS5 1-528): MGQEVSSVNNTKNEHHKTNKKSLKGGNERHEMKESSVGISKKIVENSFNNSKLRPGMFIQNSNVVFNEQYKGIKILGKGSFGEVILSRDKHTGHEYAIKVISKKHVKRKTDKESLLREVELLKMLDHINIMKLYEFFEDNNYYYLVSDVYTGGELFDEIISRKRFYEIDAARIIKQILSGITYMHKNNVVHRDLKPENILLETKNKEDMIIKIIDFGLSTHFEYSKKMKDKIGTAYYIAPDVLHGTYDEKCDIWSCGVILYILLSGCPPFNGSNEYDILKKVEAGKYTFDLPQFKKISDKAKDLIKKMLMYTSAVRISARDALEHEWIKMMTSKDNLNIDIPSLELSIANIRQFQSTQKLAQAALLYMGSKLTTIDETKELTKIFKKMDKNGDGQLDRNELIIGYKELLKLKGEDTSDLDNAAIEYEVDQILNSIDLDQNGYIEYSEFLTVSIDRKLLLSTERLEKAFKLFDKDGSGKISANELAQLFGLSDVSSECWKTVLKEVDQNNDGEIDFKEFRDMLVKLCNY
Method: Biochemical assays were performed in white 384-well plates (Nunc). Liquid transfers were done manually with 8-channel pipets. Compounds were initially tested in a single-point screen (final concentration 1 μM). […] The catalytic activity of each kinase was considered proportional to ATP consumed, as determined from measurements of residual [ATP] with the luciferase-based reagent Kinase-Glo (Promega) following incubation. Luminescence (proportional to residual [ATP]) was measured on the plate readers FLx800 (BioTek Instruments, Winooski, VT, USA) and MicroBeta^2 (PerkinElmer, Waltham, MA, USA). Incubation times were chosen to ensure near-complete ATP depletion in the absence of inhibition, thus maximizing the difference in signal between inhibited and uninhibited wells.
40 μM Syntide-2 was used as a substrate; BKI-1 [14] was used as a control inhibitor, while reaction mixtures lacking Syntide-2 were included as an additional negative control. Incubation time was 90 minutes. Reactions were terminated by adding excess EGTA (5 mM), which sequesters Ca^2+ and halts calcium-dependent kinase activity.

HepG2 cells = conditions: cited from earlier work
P. falciparum 3D7 cells = conditions: 3D7, cited from earlier work
[5] = biological target: T3, Plasmodium falciparum protein kinase 6 (PK6) (Plasmodium falciparum, UniProt Q8IDW1); assay: biochemical; conditions: hits below 1 uM; read-out: PK6 IC50
T3 construct: 6-Histidine (N); made in house
T3 sequence (Q8IDW1 1-305): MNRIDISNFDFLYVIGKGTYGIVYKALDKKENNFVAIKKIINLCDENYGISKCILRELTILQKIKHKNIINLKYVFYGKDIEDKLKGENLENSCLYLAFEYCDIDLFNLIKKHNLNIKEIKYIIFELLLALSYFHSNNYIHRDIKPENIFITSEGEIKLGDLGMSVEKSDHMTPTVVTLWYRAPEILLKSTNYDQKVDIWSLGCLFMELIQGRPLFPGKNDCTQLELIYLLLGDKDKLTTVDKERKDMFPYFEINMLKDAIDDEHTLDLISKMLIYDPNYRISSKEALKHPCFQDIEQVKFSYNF

DD2 [6] = system: DD2; set-up: method as in downloaded from ChEMBL; conditions: ref downloaded from ChEMBL; cited from earlier work
3D7 PFLDH [7] = system: 3D7 PFLDH; set-up: method as in downloaded from ChEMBL; conditions: ref downloaded from ChEMBL; cited from earlier work
[8] = HepG2, downloaded from ChEMBL, ref F.J. Gamo et al., Nature 2010
[9] = downloaded from ChEMBL, ref F.J. Gamo et al., Nature 2010
[10] = HEPG2, ref downloaded from ChEMBL

T1 sequence (P62344 whole entry): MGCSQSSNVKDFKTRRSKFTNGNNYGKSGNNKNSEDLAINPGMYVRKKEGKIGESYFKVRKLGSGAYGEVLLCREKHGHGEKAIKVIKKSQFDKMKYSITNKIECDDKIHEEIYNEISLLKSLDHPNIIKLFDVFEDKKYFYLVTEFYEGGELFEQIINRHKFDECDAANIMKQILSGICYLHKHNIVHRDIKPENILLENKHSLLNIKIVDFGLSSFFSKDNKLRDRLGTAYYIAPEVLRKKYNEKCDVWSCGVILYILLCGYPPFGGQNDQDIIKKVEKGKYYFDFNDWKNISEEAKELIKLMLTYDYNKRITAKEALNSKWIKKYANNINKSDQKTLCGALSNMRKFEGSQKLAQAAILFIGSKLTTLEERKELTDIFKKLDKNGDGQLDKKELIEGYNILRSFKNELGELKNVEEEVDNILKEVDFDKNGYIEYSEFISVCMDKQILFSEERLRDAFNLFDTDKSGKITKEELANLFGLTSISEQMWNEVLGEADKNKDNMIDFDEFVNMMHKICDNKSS
Sequence of PKG (Q8I719 whole entry): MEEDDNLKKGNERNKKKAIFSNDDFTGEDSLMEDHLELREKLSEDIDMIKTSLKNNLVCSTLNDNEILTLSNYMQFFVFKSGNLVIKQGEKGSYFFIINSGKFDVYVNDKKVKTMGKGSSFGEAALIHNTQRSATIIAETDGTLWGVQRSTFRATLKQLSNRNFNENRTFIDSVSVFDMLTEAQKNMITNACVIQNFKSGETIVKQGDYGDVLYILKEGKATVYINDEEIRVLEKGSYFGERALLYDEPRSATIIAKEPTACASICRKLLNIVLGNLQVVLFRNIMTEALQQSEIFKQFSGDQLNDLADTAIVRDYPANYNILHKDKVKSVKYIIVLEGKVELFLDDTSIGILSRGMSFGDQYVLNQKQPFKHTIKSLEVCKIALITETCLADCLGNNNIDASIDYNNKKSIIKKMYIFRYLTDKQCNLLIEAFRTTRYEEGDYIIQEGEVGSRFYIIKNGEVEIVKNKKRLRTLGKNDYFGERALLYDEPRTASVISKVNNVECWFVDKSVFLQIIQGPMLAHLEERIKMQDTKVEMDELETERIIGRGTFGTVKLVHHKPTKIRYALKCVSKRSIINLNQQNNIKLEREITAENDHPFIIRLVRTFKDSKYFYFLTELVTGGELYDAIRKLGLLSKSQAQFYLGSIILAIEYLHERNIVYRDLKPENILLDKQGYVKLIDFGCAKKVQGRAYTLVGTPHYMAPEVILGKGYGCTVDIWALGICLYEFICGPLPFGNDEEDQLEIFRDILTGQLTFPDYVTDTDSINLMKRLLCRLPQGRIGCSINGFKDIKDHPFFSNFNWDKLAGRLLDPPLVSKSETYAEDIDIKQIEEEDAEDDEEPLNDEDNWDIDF

Compound | PCT_INHB_DD2 (DD2 [1]) [%] | PCT_INHIB_3D7_PFLDH (3D7 PFLDH [2]) [%] | IC50 (PKG) [nM] | IC50 [3] [nM] | IC50 [4] [nM] | PCT_INHIB_HEPG2 (HepG2 cells; [8]) [%] | PCT_IHB_3D7 (P. falciparum 3D7 cells; [9]) [%] | pXC50_3D7 (P. falciparum 3D7 cells; [9]) | IC50 [5] [nM] | PCT_INHB_DD2 (DD2 [6]) | PCT_INHIB_HEPG2 (HepG2 cells; [10]) | PCT_IHB_3D7 (P. falciparum 3D7 cells; ref downloaded from ChEMBL) | pXC50_3D7 (P. falciparum 3D7 cells; ref downloaded from ChEMBL) | PCT_INHIB_3D7_PFLDH (3D7 PFLDH [7])
CNC(=O)c1ccccc1Nc1nc(Nc2ccc(CCN3CCN(C)CC3)cc2)ncc1Cl.Cl [TCMDC-133800] | 98 | 5 | 881 | 47 | 361 | 76 | 97 | 6.1864 | 70 |  |  |  |  | 
Cl.NC[C@H](CC1CCCCC1)NC(=O)c1ccc(-c2ccnc3[nH]ccc23)s1 [TCMDC-134150] |  |  | 1020 | 492 | 527 |  |  |  |  | 4 | 39 | 98 | 6.022 | 5
NCC(NC(=O)c1ccc(-c2c[nH]c3ncccc23)s1)c1ccccc1.O=CO (stereo not shown) [TCMDC-134154] |  |  | 430 | 29 | 473 |  |  |  |  | 87 | 52 | 95 | 6.262 | 0
CS(=O)(=O)Cc1ccc(Nc2nccc(-c3c(-c4cccc(NC(=O)c5c(F)cccc5F)c4)nn4ccccc34)n2)cc1 [TCMDC-135669] |  |  | > 10000 | 20 | 52 |  |  |  | 276 | 75 | 78 | 99 | 6.824 | 0
CC(c1cccc(Nc2nccc(-c3c(-c4cccc(NC(=O)c5c(F)cccc5F)c4)nn4ccccc34)n2)c1)S(C)(=O)=O (stereo not shown) [TCMDC-135670] |  |  | > 10000 | 21 | 90 |  |  |  |  | 99 | 76 | 98 | 7.241 | 0
O=C(Nc1c(F)cccc1F)c1cccc(-c2nn3ccccc3c2-c2ccnc(Nc3cccc(-c4cnco4)c3)n2)c1 [TCMDC-135743] |  |  | > 10000 | 40 | 134 |  |  |  |  | 94 | 96 | 95 | 6.443 | 0
NS(=O)(=O)c1cccc(Nc2nccc(-c3c(-c4cccc(NC(=O)c5c(F)cccc5F)c4)nn4ccccc34)n2)c1 [TCMDC-135780] |  |  | > 10000 | 20 | 51 |  |  |  |  | 97 | 81 | 98 | 7.1329 | 2
NS(=O)(=O)CCc1cccc(Nc2nccc(-c3c(-c4cccc(NC(=O)c5c(F)cccc5F)c4)nn4ccccc34)n2)c1 [TCMDC-135791] |  |  | > 10000 | 20 | 29 |  |  |  |  | 97 | 84 | 98 | 7.234 | 3
CN1CCN(c2ccc(Nc3nccc(-c4c(-c5cccc(NC(=O)c6c(F)cccc6F)c5)nn5ccccc45)n3)cc2)CC1 [TCMDC-135818] |  |  | 115 | 35 | 75 |  |  |  |  | 98 | 86 | 98 | 6.95 | 0
O=C(Nc1cccc(-c2nn3ccccc3c2-c2ccnc(Nc3ccc(-c4cc[nH]n4)cc3)n2)c1)c1c(F)cccc1F [TCMDC-135915] |  |  | > 10000 | 22 | 307 |  |  |  |  | 98 | 68 | 98 | 6.7232 | 5
CCn1c(-c2nonc2N)nc2c(-c3cccc(Cl)c3)ncc(OCCCNCc3cnc(C)nc3N)c21.O=C(O)C(F)(F)F [TCMDC-135956] | 48 | 3 | 9210 | 271 | 145 | 21 | 93 | 5.996 |  |  |  |  |  | 
CCn1c(-c2nonc2N)nc2c(-c3ccccc3)ncc(OCCCCNCCc3ncc[nH]3)c21.O=C(O)C(F)(F)F [TCMDC-136000] | 42 | 0 | 953 | 94 | 43 | 34 | 92 | 6.07 |  |  |  |  |  | 
CCn1c(-c2nonc2N)nc2c(-c3cccc(NC(=O)Nc4ccc(C(F)(F)F)cc4)c3)ncc(OCCCN)c21.O=C(O)C(F)(F)F [TCMDC-136179] | 63 | 6 | 264 | 959 | 30 | 36 | 94 | 5.981 |  |  |  |  |  | 
CCn1c(-c2nonc2N)nc2c(-c3cccc(NC(=O)Nc4ccc5c(c4)CCC5)c3)ncc(OCCCN)c21.O=C(O)C(F)(F)F [TCMDC-136191] | 94 | 0 | 5050 | 85 | 59 | 26 | 99 | 6.106 |  |  |  |  |  | 
CCn1c(-c2nonc2N)nc2c(-c3cccc(NC(=O)Nc4cccc(Cl)c4)c3)ncc(OCCCN)c21.O=C(O)C(F)(F)F [TCMDC-136193] | 78 | 0 | 926 | 379 | 81 | 9 | 91 | 6.027 |  |  |  |  |  | 
CCn1c(-c2nonc2N)nc2c(-c3cccc(NC(=O)Nc4ccc(C#N)cc4)c3)ncc(OCCCN)c21.O=C(O)C(F)(F)F [TCMDC-136194] | 80 | 0 | 595 | 235 | 84 | 1 | 85 | 5.821 |  |  |  |  |  | 
CCn1c(-c2nonc2N)nc2c(-c3cccc(NC(=O)Nc4cccc(C#N)c4)c3)ncc(OCCCN)c21.O=C(O)C(F)(F)F [TCMDC-136195] | 80 | 0 | 158 | 182 | 170 | 37 | 92 | 6.1747 |  |  |  |  |  | 
CCn1c(-c2nonc2N)nc2c(-c3cccc(NC(=O)NC45CC6CC(CC(C6)C4)C5)c3)ncc(OCCCN)c21.O=C(O)C(F)(F)F [TCMDC-136246] | 63 | 0 | 89 | 84 | 158 | 100 | 94 |  |  |  |  |  |  | 

Source: PMC4774911, “Biochemical Screening of Five Protein Kinases from Plasmodium falciparum against 14,000 Cell-Active Compounds” (PLoS ONE, 2016)
